From patent US20230093861A1, “RAPAMYCIN ANALOGS AS MTOR INHIBITORS” (Revolution Medicines, Inc., priority 2017, published 2023)

How the values were obtained:
P-4E-BP1 (T37/46) = test: Cell based AlphaLISA assay, inhibition of P-4E-BP1 (T37/46) (mTORC1 substrate phosphorylation) in MDA-MB-468 cells; conditions: Homo sapiens, MDA-MB-468, 4 h, AlphaLISA, two to four hours at 37° C., read-out: pIC50 for Inhibition of mTORC1 and mTORC2 Substrate Phosphorylation, P-4E-BP1-(T37/46) (converted)
How it was run: (§1)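 After treatment, cells were lysed in the kit's buffer once assay medium was withdrawn. Duplicate Alpha measurements tracked each phospho-epitope, and dose-response data were fitted to IC50 following normalization to control wells.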

P-Akt (S473) = test: Cell based AlphaLISA assay, inhibition of P-Akt (S473) (mTORC2 substrate phosphorylation) in MDA-MB-468 cells; conditions: Homo sapiens, MDA-MB-468, 4 h, AlphaLISA, two to four hours at 37° C., read-out: pIC50 for Inhibition of mTORC1 and mTORC2 Substrate Phosphorylation, p-AKT 1/2/3 -(S473) (converted)
How it was run: as §1

P-P70S6K (T389) = test: Cell based AlphaLISA assay, inhibition of P-P70S6K (T389) (mTORC1 substrate phosphorylation) in MDA-MB-468 cells; conditions: Homo sapiens, 4 h, AlphaLISA, two to four hours at 37° C., read-out: pIC50 for Inhibition of mTORC1 and mTORC2 Substrate Phosphorylation, P-P70S6K-(T389) (converted)
How it was run: as §1

| Compound | IC50 (P-4E-BP1 (T37/46)) | IC50 (P-Akt (S473)) | IC50 (P-P70S6K (T389)) |
| --- | --- | --- | --- |
| CO[C@H]1C[C@@H]2CC[C@@H](C)[C@@](O)(O2)C(=O)C(=O)N2CCCC[C@H]2C(=O)O[C@H]([C@H](C)C[C@@H]2CC[C@@H](OCCOCc3cn(CCOCCOCCOCCOCCOCCOCCC(=O)N4CC(Cn5nc(-c6ccc7oc(N)nc7c6)c6c(N)ncnc65)C4)nn3)[C@H](OC)C2)CC(=O)[C@H](C)/C=C(\C)[C@@H](O)[C@@H](OC)C(=O)[C@H](C)C[C@H](C)/C=C/C=C/C=C/1C [Example 57] | < 3.16 nM | 3.16 to 31.6 nM | < 1 nM |
| CO[C@H]1C[C@@H]2CC[C@@H](C)[C@@](O)(O2)C(=O)C(=O)N2CCCC[C@H]2C(=O)O[C@H]([C@H](C)C[C@@H]2CC[C@@H](OCCC(C)(C)Cc3cn(CCOCCOCCOCCOCCOCCOCCOCCOCCC(=O)NCCCCn4nc(-c5ccc6oc(N)nc6c5)c5c(N)ncnc54)nn3)[C@H](OC)C2)CC(=O)[C@H](C)/C=C(\C)[C@@H](O)[C@@H](OC)C(=O)[C@H](C)C[C@H](C)/C=C/C=C/C=C/1C [Example 58] | < 3.16 nM | < 3.16 nM | < 1 nM |
| CO[C@H]1C[C@@H]2CC[C@@H](C)[C@@](O)(O2)C(=O)C(=O)N2CCCC[C@H]2C(=O)O[C@H]([C@H](C)C[C@@H]2CC[C@@H](OCCC(C)(C)Cc3cn(CCOCCOCCOCCOCCOCCOCCC(=O)NCCCCn4nc(-c5ccc6oc(N)nc6c5)c5c(N)ncnc54)nn3)[C@H](OC)C2)CC(=O)[C@H](C)/C=C(\C)[C@@H](O)[C@@H](OC)C(=O)[C@H](C)C[C@H](C)/C=C/C=C/C=C/1C [Example 59] | < 3.16 nM | 3.16 to 31.6 nM | < 1 nM |
| CO[C@H]1C[C@@H]2CC[C@@H](C)[C@@](O)(O2)C(=O)C(=O)N2CCCC[C@H]2C(=O)O[C@H]([C@H](C)C[C@@H]2CC[C@@H](OC(=O)NCc3cn(CCOCCOCCOCCOCCOCCOCCC(=O)NCCCCn4nc(-c5ccc6oc(N)nc6c5)c5c(N)ncnc54)nn3)[C@H](OC)C2)CC(=O)[C@H](C)/C=C(\C)[C@@H](O)[C@@H](OC)C(=O)[C@H](C)C[C@H](C)/C=C/C=C/C=C/1C [Example 60] | < 3.16 nM | 3.16 to 31.6 nM | < 1 nM |
| CO[C@H]1C[C@@H]2CC[C@@H](C)[C@@](O)(O2)C(=O)C(=O)N2CCCC[C@H]2C(=O)O[C@H]([C@H](C)C[C@@H]2CC[C@@H](OC(=O)NCc3cn(CCOCCOCCOCCOCCOCCOCCOCCOCCC(=O)NCCCCn4nc(-c5ccc6oc(N)nc6c5)c5c(N)ncnc54)nn3)[C@H](OC)C2)CC(=O)[C@H](C)/C=C(\C)[C@@H](O)[C@@H](OC)C(=O)[C@H](C)C[C@H](C)/C=C/C=C/C=C/1C [Example 61] | 3.16 to 31.6 nM | 3.16 to 31.6 nM | 1 to 10 nM |
| CO[C@H]1C[C@@H]2CC[C@@H](C)[C@@](O)(O2)C(=O)C(=O)N2CCCC[C@H]2C(=O)O[C@H]([C@H](C)C[C@@H]2CC[C@H](n3nncc3-c3cccc(-c4cn(CCOCCOCCOCCOCCOCCOCCOCCOCCC(=O)NCCCCn5nc(-c6ccc7oc(N)nc7c6)c6c(N)ncnc65)nn4)c3)[C@H](OC)C2)CC(=O)[C@H](C)/C=C(\C)[C@@H](O)[C@@H](OC)C(=O)[C@H](C)C[C@H](C)/C=C/C=C/C=C/1C [Example 62] | > 1000 nM | > 1000 nM | > 1000 nM |
| CO[C@H]1C[C@@H]2CC[C@@H](C)[C@@](O)(O2)C(=O)C(=O)N2CCCC[C@H]2C(=O)O[C@H]([C@H](C)C[C@@H]2CC[C@@H](O)[C@H](OC)C2)C/C(=N/OCc2cn(CCOCCOCCOCCOCCOCCOCCOCCOCCC(=O)NCCCCn3nc(-c4ccc5oc(N)nc5c4)c4c(N)ncnc43)nn2)[C@H](C)/C=C(\C)[C@@H](O)[C@@H](OC)C(=O)[C@H](C)C[C@H](C)/C=C/C=C/C=C/1C [Example 63] | 31.6 to 1000 nM | 31.6 to 1000 nM | 10 to 1000 nM |
| CCO[C@@H]1C[C@@H]([C@H](C)C[C@@H]2CC[C@@H](O)[C@H](OC)C2)OC(=O)[C@@H]2CCCCN2C(=O)C(=O)[C@]2(O)O[C@@H](CC[C@H]2C)C[C@H](OC)/C(C)=C/C=C/C=C/[C@@H](C)C[C@@H](C)C(=NOCc2cn(CCOCCOCCOCCOCCOCCOCCOCCOCCC(=O)NCCCCn3nc(-c4ccc5oc(N)nc5c4)c4c(N)ncnc43)nn2)[C@H](OC)[C@H](O)/C(C)=C/[C@H]1C [Example 64] | 3.16 to 31.6 nM | 31.6 to 1000 nM | < 1 nM |
| CCO[C@@H]1C[C@@H]([C@H](C)C[C@@H]2CC[C@@H](O)[C@H](OC)C2)OC(=O)[C@@H]2CCCCN2C(=O)C(=O)[C@]2(O)O[C@@H](CC[C@H]2C)C[C@H](OC)/C(C)=C/C=C/C=C/[C@@H](C)C[C@@H](C)C(=NOCc2cn(CCOCCOCCOCCOCCOCCOCCC(=O)NCCCCn3nc(-c4ccc5oc(N)nc5c4)c4c(N)ncnc43)nn2)[C@H](OC)[C@H](O)/C(C)=C/[C@H]1C [Example 65] | 3.16 to 31.6 nM | 31.6 to 1000 nM | 1 to 10 nM |
